Values quoted from earlier work, collected in patent US20180333418A1, “USE OF PAN FGFR INHIBITORS AND METHOD OF IDENTIFYING PATIENTS WITH CANCER ELIGIBLE FOR TREATMENT WITH A PAN FGFR INHIBITOR” (BAYER PHARMA AKTIENGESELLSCHAFT, priority 2014, published 2018).

Key:
[1] = tested on: ovarian cancer cell line A2780; details: Guagnano et al.; cited from earlier work
[2] = tested on: FGFR1-amplified osteosarcoma cell line G-292; details: Guagnano et al.; cited from earlier work

**Q.** With `CCN1CCN(c2ccc(Nc3cc(N(C)C(=O)Nc4c(Cl)c(OC)cc(OC)c4Cl)ncn3)cc2)CC1` [BGJ398] as the compound, how does the “sensitivity in vitro towards treatment” value [1] read?
**A.** The value was “sensitive”.

**Q.** What about the anti-proliferative effects [2] of the same compound?
**A.** The anti-proliferative effects was “anti-proliferative effects”.
